The CheMixHub viscosity set
Several values for one entry are separate records, joined by “and”; a condition that tells them apart may be missing. Equal entries are not always repeated.

Experiment: xn = mol fraction of the nth substance listed

OC[C@H]1O[C@H](O[C@H]2[C@H](O)[C@@H](O)C(O)O[C@@H]2CO)[C@H](O)[C@@H](O)[C@@H]1O (stereo not given in full) + O
viscosity
Details | 293.15 K | 298.15 K | 303.15 K | 308.15 K | 313.15 K | 318.15 K
100 kPa, x1 = 0.0009465 | – | – | – | 0.759 mPa·s | – | 0.627 mPa·s
100 kPa, x1 = 0.000975 | – | 0.942 mPa·s | – | 0.763 mPa·s | – | 0.628 mPa·s
100 kPa, x1 = 0.001093 | – | 0.948 mPa·s | – | 0.765 mPa·s | – | 0.632 mPa·s
100 kPa, x1 = 0.001306 | – | 0.96 mPa·s | – | 0.773 mPa·s | – | 0.639 mPa·s
100 kPa, x1 = 0.00134 | – | 0.96 mPa·s | – | 0.776 mPa·s | – | 0.639 mPa·s
100 kPa, x1 = 0.001467 | – | 0.968 mPa·s | – | – | – | –
100 kPa, x1 = 0.00157 | – | 0.972 mPa·s | – | 0.786 mPa·s | – | 0.645 mPa·s
100 kPa, x1 = 0.001596 | – | 0.975 mPa·s | – | 0.785 mPa·s | – | 0.648 mPa·s
100 kPa, x1 = 0.001818 | – | 0.985 mPa·s | – | 0.794 mPa·s | – | 0.655 mPa·s
100 kPa, x1 = 0.002168 | – | – | – | 0.804 mPa·s | – | 0.667 mPa·s
100 kPa, x1 = 0.002215 | – | – | – | 0.81 mPa·s | – | 0.669 mPa·s
100 kPa, x1 = 0.002657 | – | 1.029 mPa·s | – | 0.827 mPa·s | – | 0.682 mPa·s
101 kPa, x1 = 0.0009 | 1.022 mPa·s | 0.9029 mPa·s | 0.8044 mPa·s | 0.7221 mPa·s | 0.6529 mPa·s | –
101 kPa, x1 = 0.00099 | 1.025 mPa·s | 0.9064 mPa·s | 0.8074 mPa·s | 0.724 mPa·s | 0.6549 mPa·s | –
101 kPa, x1 = 0.0011 | 1.03 mPa·s | 0.9093 mPa·s | 0.8099 mPa·s | 0.7266 mPa·s | 0.6564 mPa·s | –
101 kPa, x1 = 0.0012 | 1.033 mPa·s | 0.9119 mPa·s | 0.812 mPa·s | 0.7287 mPa·s | 0.6586 mPa·s | –
101 kPa, x1 = 0.0013 | 1.037 mPa·s and 1.041 mPa·s | 0.9159 mPa·s and 0.9193 mPa·s | 0.8144 mPa·s and 0.8178 mPa·s | 0.7315 mPa·s and 0.7341 mPa·s | 0.6606 mPa·s and 0.6619 mPa·s | –
101 kPa, x1 = 0.0014 | 1.045 mPa·s | 0.9231 mPa·s | 0.8202 mPa·s | 0.7362 mPa·s | 0.6645 mPa·s | –
101 kPa, x1 = 0.0015 | 1.05 mPa·s | 0.9262 mPa·s | 0.823 mPa·s | 0.7383 mPa·s | 0.6669 mPa·s | –
101 kPa, x1 = 0.0016 | 1.054 mPa·s | – | 0.8261 mPa·s | 0.7406 mPa·s | 0.6687 mPa·s | –
101 kPa, x1 = 0.0018 | 1.062 mPa·s | 0.9361 mPa·s | 0.833 mPa·s | 0.7449 mPa·s | 0.6724 mPa·s | –
101.3 kPa, x1 = 0.000724 | – | – | – | 0.751 mPa·s | – | –
101.3 kPa, x1 = 0.00107 | – | 0.948 mPa·s | – | 0.766 mPa·s | – | 0.633 mPa·s
101.3 kPa, x1 = 0.00143 | – | 0.964 mPa·s | – | 0.779 mPa·s | – | 0.643 mPa·s
101.3 kPa, x1 = 0.00179 | – | 0.984 mPa·s | – | 0.794 mPa·s | – | 0.655 mPa·s
101.3 kPa, x1 = 0.002146 | – | – | – | 0.809 mPa·s | – | –
101.3 kPa, x1 = 0.002501 | – | 1.019 mPa·s | – | 0.819 mPa·s | – | 0.678 mPa·s
101.3 kPa, x1 = 0.002851 | – | 1.037 mPa·s | – | 0.836 mPa·s | – | 0.688 mPa·s
101.3 kPa, x1 = 0.003177 | – | 1.053 mPa·s | – | 0.848 mPa·s | – | 0.698 mPa·s
